Reference: US20060229239A9, “Novel curcuminoid-factor VIIa constructs as suppressors of tumor growth and angiogenesis” (priority 2002, published 2006)
Marks after values point to notes of the source that are not given here.

Assays:
HUVECs [1] = assay: Neutral Red viability assay, HUVECs; assay type: cell-based, human; conditions: 24 hrs
Experimental: (§1) HUVECs, MS-1 cells and SVR cells were cultured to confluence and agents were incubated for 24 hrs. Cell viability was determined by Neutral Red assays. Among synthetic curcumin analogs, A279L, A279U and EF-15 were not cytotoxic at 20 μM. MS-I cells were murine vascular endothelial cells which were immortalized by transfection of SV40 large T antigen but are non-maligant. However, when MS-1 cells were transfected with a ras mutant gene, cells were transformed to become malignant angiosarcoma cells, (SVR cells).

SVR cells = assay: Neutral Red viability assay, SVR cells; assay type: cell-based, murine; conditions: 24 hrs
Experimental: as §1

MS-1 cells = assay: Neutral Red viability assay, MS-1 cells; assay type: cell-based, murine; conditions: 24 hrs
Experimental: as §1

MCF10 = assay: NR viability test, MCF10 normal human breast luminal ductal cell line (no tissue factor); assay type: cell-based; conditions: Normal Breast Cells (MCF10), Mean ± S.D.
Experimental: (§2) The Neutral Red (NR) dye viability assay, instead of the Sulforhodamine B (SRB) assay, was used. In the NR viability assay, NR dye is taken up only by viable cells, while in the SRB viability assay, viable cells are fixed by trichloracetic acid (TCA) on the plate (thus, cells are killed), and the fixed cells are stained by SRB dye.
(§3) At the termination of culture, medium was removed and 200 μl of fresh, warm medium containing 50 μg of NR/ml was added to each well in a 96-well plate. Cells were incubated at 37° for 30 mins, followed by two washes with 200 μl of PBS. The NR taken up by cells was dissolved by adding 200 μl of 0.5N HCI containing 35% ethanol. The amount of the dye in each well was read at 570 nm by an ELISA plate reader.

HUVECs [2] = assay: SRB viability test (NCI method), normal HUVECs not expressing tissue factor; assay type: cell-based, human; conditions: Mean ± S.D.
tumor cells = assay: NCI screening system, tumor cells; assay type: cell-based
Experimental: Curcumin, EF24 and cisplatin were tested against tumor cells in the NCI screening system. Curcuminoids were also added to transformed breast cancer cells and the mean growth inhibitory concentrations determined, as shown in FIG. 5.

[3] = tested on: cells with or without tissue factor on the cell surface; assay: Cell killing in relation to tissue factor expression on the cell surface (summary); assay type: cell-based
Description: One aspect of the present invention provides novel compositions comprising cytotoxic compounds such as synthetic antitumor and anti-angiogenesis curcumin analogs (curcuminoids) linked to a protein delivery vehicle that can deliver the cytotoxic compoun specifically to cancer cells and vascular endothelial cells having surface-bound tissue factor. Novel compositions of the present invention can comprise a curcuminoid covalently linked to a tether which may be, but is not limited to, a dicarboxylic acid such as succinate. The tether is covalently linked to a N-terminal amino acid of a peptidyl linker such as phenylalanine-phenylalanine-arginine, the C-terminal amino acid of which comprises a methylketone. […] Preferably, the curcuminoid-tether-linker will have bonded to an amino acid of the serine protease domain of the fVIIa, thereby blocking the procoagulating activity of the novel therapeutic composition. The present invention also provides methods of synthesis of cytotoxic compound-protein conjugates. The compositions and methods of the present invention may increase the efficacy of the cytotoxic agents and decrease their side effects by delivering the agents to specific target cells. […] The conjugate EF24-FFRck-fVIIa construct of the present invention kills cancer cell lines and vascular endothelial cells, such as HUVECs, that express tissue factor on the cell surface.

normal human melanocytes = assay: NR viability test, normal human melanocytes (no tissue factor); assay type: cell-based; conditions: Mean ± S.D.
Experimental: as §2, §3

RPMI-7951 = assay: Neutral Red (NR) viability test, human melanoma RPMI-7951; assay type: cell-based; conditions: Mean ± S.E.
Experimental: as §2, §3

MDA-MB-231 = assay: Neutral Red (NR) viability test, human breast cancer MDA-MB-231; assay type: cell-based; conditions: Mean ± S.E.
Experimental: as §2, §3

DU145 = assay: SRB viability test, DU145 human prostate cancer cell line expressing tissue factor; assay type: cell-based; conditions: for O.D. 570 nm, SRB Viability Test: 48 hrs, Mean S.D.
Experimental: DU145 cells were plated with 2×10^4 cells/100 μl/well in a 96 well plate and cultured overnight. The cells were cultured for 48 hrs. Cultures was terminated by adding 40% TCA to a final concentration of 10%. Cells were fixed in TCA at 4° for 1 hr, washed with tap water 5 times and air dried. Sulforhodamine B (SRB) solution (100 μl) at 0.4% (w/v) in 1% acetic acid was added to each well, and the cells were incubated for 10 mins at room temperature. After staining, unbound dye was removed by washing five times with 1% acetic acid and air dried. […] Assays were performed in triplicate or quadruplicate. An asterisk (*) indicates p<0.0001 by the Student t-test (two-tailed probability). The concentration of EF24-FFRck-fVIIa was estimated based on protein concentration.

Cell cytotoxicity assays = assay type: cell-based
Experimental: Of several compounds examined, the succinic acid derivative aa (86% yield) was suitable since it retained 50% of the activity of EF24 in cell cytotoxicity assays. To synthesize the succinyl derivative aa of EF24, to a solution of EF24 (0.16 g, 0.5 mmol) in anhydrous CH2Cl2 (6 ml) was added succinic anhydride (0.057 g, 0.5 mmol) and Et3N (101 mg, 1 mmol). The mixture was stirred at room temperature for 3 hrs, diluted with CH2Cl2, washed twice with saturated NaHCO3 (2×10 ml) and brine, dried over anhydrous Na2SO4, and relieved of solvent by evaporation. The resulting solid was purified by flash chromatography using benzene/acetone/acetic acid (27:10:0.5) as the eluant to obtain the yellow solid aa ([…], mp 145° C., 86% yield). [drawing 15]

| SMILES | O.D 570 nm, NR Viability Test (MCF10; 0.8 pM) | O.D 570 nm, NR Viability Test (MCF10; 4 pM) | O.D. 490 nm, SRB Viability Test (HUVECs [2]; 0.8 pM) | O.D. 490 nm, SRB Viability Test (HUVECs [2]; 8 pM) | killing of cancer cells and normal cells regardless of tissue factor expression [3] | O.D 570 nm, NR Viability Test (normal human melanocytes; 0.8 pM) | O.D 570 nm, NR Viability Test (normal human melanocytes; 4 pM) | O.D. 570 nm, NR Viability Test (RPMI-7951; RPM17951, 1 pM) | O.D. 570 nm, NR Viability Test (RPMI-7951; RPM17951, 2 pM) | O.D. 570 nm, NR Viability Test (MDA-MB-231; MDA231, 1 pM) | O.D. 570 nm, NR Viability Test (MDA-MB-231; MDA231, 2 pM) | O.D. 570 nm, SRB Viability Test (DU145; DU145, 0.8 pM) | O.D. 570 nm, SRB Viability Test (DU145; DU145, 8 pM) | other results |
| --- | --- | --- | --- | --- | --- | --- | --- | --- | --- | --- | --- | --- | --- | --- |
| COc1cc(/C=C/C(=O)CC(=O)/C=C/c2ccc(O)c(OC)c2)ccc1O [Curcumin, diferuloylmethane] | – | – | – | – | – | – | – | – | – | – | – | – | – | Neutral Red Viability Assay (% of Control) (HUVECs [1]; 1 μM): 103 % of Control; Neutral Red Viability Assay (% of Control) (HUVECs [1]; 20 μM): 21 % of Control; Neutral Red Viability Assay (% of Control) (SVR cells; 1 μM): 88 % of Control; Neutral Red Viability Assay (% of Control) (SVR cells; 20 μM): 4 % of Control; Neutral Red Viability Assay (% of Control) (MS-1 cells; 1 μM): 90 % of Control; Neutral Red Viability Assay (% of Control) (MS-1 cells; 20 μM): 3 % of Control |
| O=C1/C(=C/c2ccccc2F)CNC/C1=C\c1ccccc1F [EF24, 3,5-Bis-(2-fluorobenzylidene)-piperidin-4-one] | 0.104 ± 0.018 | 0.091 ± 0.007 | 0.136 ± 0.010 | 0.038 ± 0.010 | indiscriminatingly kills | 0.255 ± 0.009 | 0.119 ± 0.009 | 0.220 ± 0.023 | 0.119 ± 0.018 | 0.172 ± 0.020 | 0.109 ± 0.014 | 0.391 ± 0.041 | 0.053 ± 0.025* | potency relative to cisplatin (tumor cells): about 10 times; effectiveness against tumor cells compared with cisplatin or curcumin (tumor cells; NCI screening system, FIG. 4): significantly more effective |
| O=C(O)CCC(=O)N1C/C(=C\c2ccccc2F)C(=O)/C(=C/c2ccccc2F)C1 [aa] | – | – | – | – | – | – | – | – | – | – | – | – | – | activity retained relative to EF24 in cell cytotoxicity assays (Cell cytotoxicity assays): 50% |
| N=C(N)NCCC[C@H](NC(=O)[C@H](Cc1ccccc1)NC(=O)[C@@H](Cc1ccccc1)NC(=O)CCC(=O)N1C/C(=C\c2ccccc2F)C(=O)/C(=C/c2ccccc2F)C1)C(=O)CCl [EF24-FFRck] | 0.101 ± 0.013 | 0.113 ± 0.003 | 0.152 ± 0.026 | 0.160 ± 0.038 | does not kill | 0.252 ± 0.007 | 0.249 ± 0.015 | 0.253 ± 0.018 | 0.247 ± 0.020 | 0.191 ± 0.013 | 0.171 ± 0.009 | 0.389 ± 0.021 | 0.383 ± 0.027 | cell killing (DU145; EF24-FFRck alone, Table 2): does not kill any cells |
